Non-standard residues stand in square brackets, D forms with d. Residues, ends and D or L forms follow the SMILES beside them. *: point of attachment. Tle = CC(C)(C)[C@H](N)C(=O)O; X1 = C[C@@H](CCCCCN)C(=O)*
Assays:
[1] = Brain distribution of ABS201 (LC/MS/MS)
From the text: (§1) At selected time points, blood was removed or brain harvested and the concentration of the peptide analog determined using LC/MS/MS.
(§2) These samples were then used for the determination of plasma and brain drug levels by LC/MS/MS for estimating BBB penetration and pharmacokinetic parameters.

mouse bone marrow cells = experiment: Micronucleus study; format: in vivo; details: initial data
Method: Genetic Toxicology. […] Experimental protocols are as follows.
In the micronucleus study, 90 CD-1 mice used in the study consisted of 10/sex/group in Groups 1-4 (control, low-, mid-, and high-dose) and 5/sex in the positive control group. Test peptide as administered orally, the positive control, Cyclophosphamide at 80 mg/kg, as administered orally. Approximately 24 and 48 hours after dosing, mice were killed and bone marrow obtained from both femurs. A slide of a bone marrow suspension was prepared, stained with Wright-Giemsa stain, dried, and scored blind. The number of polychromatic erythrocytes (PCE) among the total erythrocytes (PCE+normochromatic erythrocytes (NCE)) were determined for each animal by counting at least 200 erythrocytes. The number of micronucleated polychromatic erythrocytes (MPCE) then were scored for 2000 PCE per animal. A positive result was obtained, if there is a positive dose-response trend or statistically significant increase in the number of MPCE at one or more dose levels compared to controls.

[2] = Pharmacokinetics of ABS201 in blood/plasma (LC/MS/MS)
From the text: as §1, §2

In the case of `CC(C)C[C@H](NC(=O)[C@@H](NC(=O)[C@H](Cc1ccc(O)cc1)NC(=O)[C@@H]1CCCN1C(=O)[C@H](CCCNC(=N)N)NC(=O)[C@@H](C)CCCCCN)C(C)(C)C)C(=O)O` [ABS201, hLys-Arg-Pro-Tyr-t-Leu-Leu] (X1-RPY[Tle]L-OH), the levels in brain ([1]; IV 1 mg/kg and PO 30 mg/kg) is reported as “below the LLOD at all times”, the levels in brain ([1]; IV 5 mg/kg) is reported as “below the LLOD at all times” and the levels in brain ([1]; oral 50 mg/kg, 15 minutes post administration) is reported as “detected in brains of 2 of 3 animals”. For the same molecule, the micronucleus study result (mouse bone marrow cells) was “inactive”, the “time by which plasma levels decreased below the LLOD” value ([2]; IV 1 mg/kg) was ≤ 45 min and the “clearance as % of rat hepatic blood flow” value ([2]; IV 5 mg/kg) was 74.02%. For the same molecule, the “time measurable in whole blood” value ([2]; IV 5 mg/kg) was “up to 120 minutes”, the “time detectable in the blood and brain” value ([2]; IV 5 mg/kg and oral 50 mg/kg) was “up to 120 minutes” and the plasma levels ([2]; oral 30 mg/kg) was “below the LLOD at all times”. The “levels in whole blood” value ([2]; oral 50 mg/kg) was “below the LLOD at all times”, the Vd ([2]; rat, in vivo, iv, 5 mg/kg) was 0.87 ± 0.27 L/kg and the clearance ([2]; rat, in vivo, iv, 5 mg/kg) was 40.8 mL/min/kg.
